What all share (assay): DTP human tumour cell line panel, 48 h
Assay [1] concerns HL-60(TB) leukemia.
Assay [2] concerns RXF 393 renal.
Assay [3] relates to LOX IMVI melanoma.
The subject of assay [4] is ACHN renal.
Assay [5] has as its system HOP-92 NSCLC.
The subject of assay [6] is HCT-15 colon.
Assay [7] relates to NCI-H23 lung.
In assay [8] the test system is MCF7 breast.
The subject of assay [9] is MDA-MB-435.
The test system of assay [10] is NCI/ADR-RES ovarian.

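Cultured in 96-well plates, cells were exposed to test compound for 48 hours across five concentrations. GI50 marks 50% less growth. The concentration for full growth arrest is given as TGI.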

As for `NC(=O)c1ncn(C2OC(CO)C(O)C2O)c1O` (stereo unspecified), the TGI in assay [1], in [2], in assay [3], in assay [4], in assay [5] and in [6] was over 100 µM throughout.
Turning to `Cc1[nH]c2cc([N+](=O)[O-])ccc2c1[N+](=O)[O-]`, the total growth inhibition concentration (TGI) in [1] is 55.1 µM; in [2], 54.1 µM; in assay [3], 76.2 µM; in assay [7], 58.6 µM; in assay [4] it was 50.3 µM; in assay [5], 23.8 µM.
As to `CC1(C)C(=O)/C=C\C(=O)C(C)(C)C(=O)/C=C\C(=O)C(C)(C)C2=CC=C(O2)C(C)(C)C(=O)/C=C\C1=O`, the TGI in assay [1] came out at 2.24 µM; in assay [8] it was 39.8 µM; in assay [9], 29.3 µM; in assay [2], 4.73 µM; in [3], 13 µM; in assay [7], 15.6 µM. For the same compound, the TGI in assay [4] amounted to 12.6 µM; in [5], 3.9 µM; in [6], 7.69 µM.
`CN(C)N=Nc1ccc(S(N)(=O)=O)cc1`: the TGI in assay [3], in [7], in assay [4], in [5] and in [6] was over 100 µM throughout.
With `N#CC(/C(CCCC(=O)Nc1cccc([N+](=O)[O-])c1)=N\NC(=O)c1c(O)ccc2ccccc12)c1nc2ccccc2s1` (stereo unspecified), the TGI in assay [1] is 24.1 µM; in assay [2], over 100 µM; in assay [7] it was over 100 µM; in assay [4], over 100 µM; in assay [5] it was over 100 µM.
Consider `O=C(CCc1ccccc1)CC1OC(=O)C(Cl)=C1Cl` (stereo unspecified), for which the TGI in assay [2] worked out at 59.8 µM; in assay [3] it was 40.2 µM; in [7], 53.4 µM; in assay [4] it was 38.6 µM; in assay [5] it was 41.1 µM; in [6], 30.3 µM.
Take `CN1CCN(c2nc(N)c(Br)c(Cl)n2)CC1`: the TGI in assay [1], in assay [2], in assay [3], in assay [7], in [4] and in assay [5] was over 100 µM in each case. In [6], the TGI is over 100 µM.
As for `COC(=O)[C@@]12C3=NO[C@]1(C(=O)OC)C(O[Si](C)(C)C(C)(C)C)[C@@H](OC(C)=O)[C@@H](OC(C)=O)[C@@H]2[C@@H](OCc1ccccc1)CC3` (stereo partly specified), the TGI is over 100 µM in [1]; 89.6 µM in assay [2]; over 100 µM in assay [3]; over 100 µM in assay [7]; over 100 µM in [4]; over 26.1 µM in assay [5]. This compound displayed a TGI in assay [6] of over 100 µM.
As to `O=C(C(=CN1CCN(C(=O)c2ccco2)C1=S)C(=O)c1ccccc1)c1ccccc1`, the GI50 in assay [1] was 9.89 µM; in assay [9] it was 7.24 µM; in assay [2], 5.84 µM; in [3], 1.22 µM; in [10], 9.18 µM; in [7] it was 6.95 µM. The GI50 is 5.75 µM in [4], 27 µM in assay [5] and 2.63 µM in assay [6]. For the same compound, the TGI in assay [1] worked out at 34.9 µM; in assay [9], 18.7 µM; in assay [2], 14.8 µM; in assay [3] it was 4.1 µM; in assay [10], 19 µM; in [7], 14 µM. The TGI in assay [4] is 16.5 µM; in assay [5] it was over 50 µM; in assay [6], 20.7 µM.
Consider `COc1ccc(C(=O)C(C(=O)C(=O)NCCCNC(=O)C(=O)C(C(=O)c2ccc(OC)cc2)c2ccc(OC)cc2)c2ccc(OC)cc2)cc1` (stereo unspecified), for which the TGI in [1], in [3], in [7], in assay [5] and in assay [6] was over 100 µM in each case.
Regarding `S=C(SSC(=S)N1CCCCC1)N1CCCCC1`, the GI50 in assay [1] is 12.4 µM; in [9] it was 22 µM; in [2], 14.2 µM; in [3], 5.64 µM; in [10], 15.7 µM; in assay [7] it was 16.3 µM. Further, the GI50 in assay [4] was 15.5 µM; in [5] it was 30.7 µM; in assay [6], 16.5 µM. Moreover, the total growth inhibition concentration (TGI) in assay [1] is 51.3 µM; in [9], over 100 µM; in [2], 35.8 µM; in assay [3] it was 18.1 µM; in assay [10] it was 40.9 µM; in assay [7], 36 µM. Also, the TGI in assay [4] was 41 µM; in [5], over 100 µM; in [6] it was 66.8 µM.
Take `CC1=C2C=CC(=O)C[C@@]2(C)CCC1`: the TGI in assay [1], in assay [2], in assay [3], in assay [7], in [4] and in assay [5] was over 100 µM throughout. In assay [6], this compound registered a TGI of over 100 µM.
For the compound `CCOC(=O)C1C(=O)CC(=O)C2CCCCC21` (stereo unspecified), the TGI in [1], in assay [2], in assay [3], in [7], in [4] and in [5] was over 100 µM in each case. The TGI in [6] was over 100 µM.
Consider `CC(=O)[CH-]C(=O)c1ccccc1.CC(=O)[CH-]C(=O)c1ccccc1.CC(=O)[CH-]C(=O)c1ccccc1.[Ga+3]`, for which the GI50 in assay [1] was 11.8 µM; in [2] it was 29.1 µM; in assay [3], 16.3 µM; in assay [7] it was 20.2 µM; in [4] it was 30.3 µM; in [5] it was 29.8 µM. Moreover, in [6], the GI50 is 18.2 µM. Moreover, the TGI in assay [1] was 36.1 µM; in assay [2], 48 µM; in [3] it was 31.7 µM; in [7] it was 48.3 µM; in assay [4] it was over 100 µM; in assay [5], 51.9 µM. Also, the TGI in assay [6] was over 100 µM.
In the case of `O=C(N/C(=C\c1ccc(/C=C(\NC(=O)c2ccccc2)c2nc3c(O)nc(S)nc3[nH]2)cc1)c1nc2c(O)nc(S)nc2[nH]1)c1ccccc1`, the TGI in assay [2], in assay [3], in assay [7], in assay [4], in assay [5] and in assay [6] was over 100 µM in each case.
Take `N#Cc1ccc(C2SCc3nc4ccccc4n32)cc1` (stereo unspecified): the TGI in assay [1], in [2], in assay [7], in [4] and in assay [6] was over 100 µM throughout.

(Values after PubChem BioAssay (NCI).)
